Laboratory results from article PMC11606974, “Stereoselective chemical N-glycoconjugation of amines via CO2 incorporation” (Nature Communications, 2024).
pIC50: −log10 of the molar value.

How the values were obtained:
[1] = system: SK-MEL-28 cells; assay: Cell viability assay (CCK-8, 72 h); conditions: Homo sapiens, SK-MEL-28, 72 h, read-out: SK-MEL-28 IC50 (growth inhibition)
[2] = system: HEK-293T cells; assay: Cell viability assay (CCK-8, 72 h); conditions: Homo sapiens, read-out: HEK-293T IC50 (growth inhibition)
[3] = system: SNU-5 cells; assay: Cell viability assay (CCK-8, 72 h); conditions: Homo sapiens, SNU-5, 72 h, read-out: SNU-5 IC50 (growth inhibition)
[4] = target: ALK (kinase domain, 1068–1410) (Homo sapiens, UniProt Q9UM73); assay: Enzymatic inhibition assay, ATP hydrolysis (Kinase-Glo luminescent kit)
ALK (kinase domain, 1068–1410), sequence (Q9UM73 1068-1410): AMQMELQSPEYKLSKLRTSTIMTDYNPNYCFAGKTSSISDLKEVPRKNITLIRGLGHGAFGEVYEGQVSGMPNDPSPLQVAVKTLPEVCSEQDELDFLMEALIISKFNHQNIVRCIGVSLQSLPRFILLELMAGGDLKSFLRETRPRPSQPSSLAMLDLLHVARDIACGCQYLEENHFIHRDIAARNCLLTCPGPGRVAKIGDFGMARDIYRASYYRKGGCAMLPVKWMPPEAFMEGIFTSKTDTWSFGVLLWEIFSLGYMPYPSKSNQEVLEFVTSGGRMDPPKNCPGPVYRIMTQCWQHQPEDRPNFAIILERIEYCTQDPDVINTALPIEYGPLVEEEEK

[5] = Pharmacokinetic analysis of crizotinib glucosides after oral gavage, plasma LC/MS/MS; format: in vivo, male C57 mice
[6] = system: cancer cells; parameters: method as in PMID 25184545; conditions: compared with deglycoBLM (6); cited from earlier work
[7] = mouse, plasma, oral GA95 91.6 mg/kg, male C57 mice, analyte Glycolcrizotinib

| pIC50 [1] | pIC50 [3] | pIC50 [4] | half-life ([5]; mouse, plasma, oral GA95 91.6 mg/kg, male C57 mice, analyte GA95) [min] | AUC(0-inf) [5, 7] [ng·h/mL] | AUC(0-t) [5, 7] [ng·h/mL] | Cmax [5, 7] [ng/mL] | MRT [5, 7] [min] | Tmax [5, 7] [min] | SMILES | pIC50 [2] | plasma concentration of crizotinib after oral application of the glucoside ([5]; oral GA95, male C57 mice, compared with the crizotinib group) | cytotoxic activity [6] |
| --- | --- | --- | --- | --- | --- | --- | --- | --- | --- | --- | --- | --- |
| 5.22 | 7.82 | – | – | – | – | – | – | – | C[C@@H](Oc1cc(-c2cnn(C3CCNCC3)c2)cnc1N)c1c(Cl)ccc(F)c1Cl [Crizotinib, reference compound] | 5.22 | – | – |
| 5.30 | 7.35 | 5.96 | – | – | – | – | – | – | CC(=O)OC[C@H]1O[C@@H](OC(=O)N2CCC(n3cc(-c4cnc(N)c(O[C@H](C)c5c(Cl)ccc(F)c5Cl)c4)cn3)CC2)[C@H](OC(C)=O)[C@@H](OC(C)=O)[C@@H]1OC(C)=O [GA89] | 5.30 | – | – |
| 4.60 | 7.66 | 6.52 | 43.6 | 42.6 | 37.6 | 33.6 | 64.8 | 15 | C[C@@H](Oc1cc(-c2cnn(C3CCN(C(=O)O[C@@H]4O[C@H](CO)[C@@H](O)[C@H](O)[C@H]4O)CC3)c2)cnc1N)c1c(Cl)ccc(F)c1Cl [GA95] | 4.60 | quickly increased to the similar level as the crizotinib group | – |
| – | – | – | – | – | – | – | – | – | Cc1c(N)nc([C@H](CC(N)=O)NC[C@H](N)C(N)=O)nc1C(=O)N[C@H](C(=O)N[C@H](C)[C@@H](O)[C@H](C)C(=O)N[C@H](C(=O)NCCc1nc(-c2nc(C(=O)NCCCNCCCCNC(=O)OC3O[C@@H](CO)[C@@H](O)[C@H](O)[C@@H]3O[C@H]3O[C@H](CO)[C@@H](O)[C@H](OC(N)=O)[C@@H]3O)cs2)cs1)[C@@H](C)O)[C@@H](O)c1c[nH]cn1 (stereo partly shown) [compound 5] | – | – | significantly more potent cytotoxic activity than deglycoBLM (6) |
